Experimental data taken from US4552882A, “7-(1-Pyrrolyl) derivatives of 1-ethyl-1,4-dihydro-4-oxoquinoline-3-carboxylic acids and 1-ethyl-1,4-dihydro-4-oxo-1,8-naphthyridine-3-carboxylic acids and their use as antimicrobial agents” (Provesan, SA, priority 1983, dated 1985).
Converted amounts (≈) assume the structure as drawn.

System: gram-negative microorganisms
Assay: in vitro antimicrobial activity compared to pipemidic acid
Assay type: cell-based
Conditions: not given
Method: (G. L. Daquet and Y. A. Chabbect, Techniques en bacteriologie (Bacteriological techniques), vol. 3, Flammarion Medecine Sciences, Paris, 1972 and W. B. Hugo and A. D. Rusell, Pharmaceutical Microbiology, Blackwell Scientific Publications, London, (1977)).
Antibiotic medium no. 1 (seed agar) (Oxoid CM 327)
Tryptone-soya broth (Oxoid CM 129)
Ringer's physiological solution 1/4 (oxoid BR 52) Dextrose agar (BBL-11165) 0.1 N NaOH
Each of the microorganisms is seeded by streaking in tubes of Antibiotic medium No. 1 (seed agar), which are then incubated at 37° C. for 20 hours. Using a culture loop, the cultures are then seeded in tryptone-soyabroth and incubated at 37° C. for 20 hours. The culture obtained is diluted to 1/4 with Ringer's physiological solution, so as to obtain a standardized suspension of 10^7 -10^9 cfu/ml for each organism.
Starting from a solution of 1,000 μg/ml in 0.1 N NaOH, each product is diluted in Dextrose agar (previously melted and maintained at 50° C.), with successive dilutions so as to obtain the following concentrations: 64--32--16--8--4--2--1--0.5--0.25--0.125 μg of derivative/ml medium.
For each product, the solution of each concentration is subsequently distributed into Petri dishes 10 cm in diameter, with 10 ml of medium per dish and the same number of dishes as microorganisms to be tested.
As soon as the medium has cooled, the dishes are seeded with the inoculations using 0.4 ml of inoculation per dish. They are spread with a Driglasky loop and the supernatant is removed. The seeded dishes are incubated at 37° C. for 20 hours.

| SMILES | activity compared to pipemidic acid |
| --- | --- |
| CCn1cc(C(=O)O)c(=O)c2ccc(-n3cccc3)nc21 [Example 3, 1-ethyl-1,4-dihydro-4-oxo-7-(1-pyrrolyl)-1,8-naphthyridine-3-carboxylic acid] | activity of the same order as that of pipemidic acid |

System: Citrobacter freundii ATCC 11606
Assay: MIC in vitro
Assay type: cell-based
Conditions: ATCC11606, Dextrose agar, 37° C., 20 hours
Method: (G. L. Daquet and Y. A. Chabbect, Techniques en bacteriologie (Bacteriological techniques), vol. 3, Flammarion Medecine Sciences, Paris, 1972 and W. B. Hugo and A. D. Rusell, Pharmaceutical Microbiology, Blackwell Scientific Publications, London, (1977)). Antibiotic medium no. 1 (seed agar) (Oxoid CM 327) Tryptone-soya broth (Oxoid CM 129) Ringer's physiological solution 1/4 (oxoid BR 52) Dextrose agar (BBL-11165) 0.1 N NaOH "Citrobacter freundii" ATCC 11606 Each of the microorganisms is seeded by streaking in tubes of Antibiotic medium No. 1 (seed agar), which are then incubated at 37° C. for 20 hours. Using a culture loop, the cultures are then seeded in tryptone-soyabroth and incubated at 37° C. for 20 hours. The culture obtained is diluted to 1/4 with Ringer's physiological solution, so as to obtain a standardized suspension of 10^7 -10^9 cfu/ml for each organism. Starting from a solution of 1,000 μg/ml in 0.1 N NaOH, each product is diluted in Dextrose agar (previously melted and maintained at 50° C.), with successive dilutions so as to obtain the following concentrations: 64--32--16--8--4--2--1--0.5--0.25--0.125 μg of derivative/ml medium. For each product, the solution of each concentration is subsequently distributed into Petri dishes 10 cm in diameter, with 10 ml of medium per dish and the same number of dishes as microorganisms to be tested. As soon as the medium has cooled, the dishes are seeded with the inoculations using 0.4 ml of inoculation per dish. They are spread with a Driglasky loop and the supernatant is removed. The seeded dishes are incubated at 37° C. for 20 hours.

| SMILES | MIC [µg/mL] |
| --- | --- |
| CCn1cc(C(=O)O)c(=O)c2ccc(-n3cccc3)cc21 [Example 1, 7-(1-pyrrolyl)-1-ethyl-1,4-dihydro-4-oxo-3-quinolinecarboxylic acid] | 16 (≈ 56.7 µM) |
| CCn1cc(C(=O)O)c(=O)c2cc(F)c(-n3cccc3)cc21 [Example 2, 6-fluoro-7-(1-pyrrolyl)-1-ethyl-1,4-dihydro-4-oxo-3-quinolinecarboxylic acid] | 8 (≈ 26.6 µM) |
| CCn1cc(C(=O)O)c(=O)c2ccc(-n3cccc3)nc21 [Example 3, 1-ethyl-1,4-dihydro-4-oxo-7-(1-pyrrolyl)-1,8-naphthyridine-3-carboxylic acid] | 32 (≈ 113 µM) |
| CCn1cc(C(=O)O)c(=O)c2cc(F)c(-n3cccc3)nc21 [Example 4, 1-ethyl-1,4-dihydro-4-oxo-6-fluoro-7-(1-pyrrolyl)-1,8-naphthyridine-3-carboxylic acid] | 4 (≈ 13.3 µM) |
| CCn1cc(C(=O)O)c(=O)c2cnc(N3CCNCC3)nc21 [Pipemidic acid, reference compound] | 4 (≈ 13.2 µM) |
